Test results as given in patent US20240228458A1, “PYRIMIDINE DERIVATIVE HAVING PROTEIN KINASE INHIBITORY ACTIVITY, AND THERAPEUTIC PHARMACEUTICAL COMPOSITION COMPRISING SAME” (THERAPEX CO., LTD., priority 2021, published 2024).

Tests used:
Type in all cases: cell-based
[1] = test system: Ba/F3 cells expressing EGFR-wt; assay: Growth inhibition (GI50) of Ba/F3 cells expressing EGFR-wt, Celltiter glo; details: Mus musculus, BaF3, 72 h
Outline: (§1)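 Antiproliferative activity was assessed in EGFR-mutant or wild-type Ba/F3 cells over 72 h at 37 °C with 5% CO2. Cell viability was determined by CellTiter-Glo, and GI50 taken as the compound concentration inhibiting growth by 50%.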

[2] = test system: Ba/F3 cells expressing L858R/T790M/C797S (EGFR-LTC); assay: Growth inhibition (GI50) of Ba/F3 cells expressing L858R/T790M/C797S (EGFR-LTC), Celltiter glo; details: Mus musculus, BaF3, 72 h
Outline: as §1

[3] = test system: Ba/F3 cells expressing L858R/T790M (EGFR-LT); assay: Growth inhibition (GI50) of Ba/F3 cells expressing L858R/T790M (EGFR-LT), Celltiter glo; details: Mus musculus, BaF3, 72 h
Outline: as §1

parental Ba/F3 cell line = assay: Growth inhibition (GI50) of the parental Ba/F3 cell line (not introduced with EGFR variants), Celltiter glo; details: Mus musculus, BaF3, 72 h, parental Ba/F3 cells
Outline: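 Parental Ba/F3 cells (100,000 cells/ml) were treated with 10-point, 4-fold compound dilutions (0.5% DMSO; top stock 2 mM) for 72 h at 37 °C, 5% CO2. Viability was read by CellTiter-Glo; GI50 is the concentration (μM) giving 50% growth inhibition.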

[4] = test system: Ba/F3 cells expressing del19/T790M/C797S (EGFR-DTC); assay: Growth inhibition (GI50) of Ba/F3 cells expressing del19/T790M/C797S (EGFR-DTC), Celltiter glo; details: Mus musculus, BaF3, 72 h
Outline: as §1

[5] = test system: Ba/F3 cells expressing del19/T790M (EGFR-DT); assay: Growth inhibition (GI50) of Ba/F3 cells expressing del19/T790M (EGFR-DT), Celltiter glo; details: Mus musculus, BaF3, 72 h
Outline: as §1

Compound | GI50 [1] | GI50 [2] | GI50 [3] | GI50 (parental Ba/F3 cell line) | GI50 [4] | GI50 [5]
COc1cc(N2CCC(N3CCN(C)CC3)CC2)c(Cl)cc1Nc1ncc(Cl)c(Nc2cc(Cl)ccc2N(C)S(C)(=O)=O)n1 [Example 170, N-(4-chloro-2-((5-chloro-2-((5-chloro-2-methoxy-4-(4-(4-methylpiperazin-1-yl)piperidin-1-yl)phenyl)amino)pyrimidin-4-yl)amino)phenyl)-N-methylmethanesulfonamide] | 25 to 100 nM | 1 to 25 nM | 1 to 25 nM | 100 to 500 nM | 1 to 25 nM | 1 to 25 nM
Cc1cc(Nc2ncc(Cl)c(Nc3cc4c(cc3NS(C)(=O)=O)CCO4)n2)c(Cl)cc1N1CCC(N2CCCN(C)CC2)CC1 [Example 172, N-(6-((5-chloro-2-((2-chloro-5-methyl-4-(4-(4-methyl-1,4-diazepan-1-yl)piperidin-1-yl)phenyl)amino)pyrimidin-4-yl)amino)-2,3-dihydrobenzofuran-5-yl)methanesulfonamide] | 100 to 500 nM | 1 to 25 nM | 1 to 25 nM | 100 to 500 nM | 1 to 25 nM | 25 to 100 nM
Cc1cc(Nc2ncc(Cl)c(Nc3cc4c(cc3NS(C)(=O)=O)CCO4)n2)c(Cl)cc1N1CCC(N2CCN(C)CC2)CC1 [Example 173, N-(6-((5-chloro-2-((2-chloro-5-methyl-4-(4-(4-methylpiperazin-1-yl)piperidin-1-yl)phenyl)amino)pyrimidin-4-yl)amino)-2,3-dihydrobenzofuran-5-yl)methanesulfonamide] | 100 to 500 nM | 25 to 100 nM | 1 to 25 nM | 100 to 500 nM | 25 to 100 nM | 1 to 25 nM
COc1cc(N2CCC(N3CCCN(C)CC3)CC2)c(Cl)cc1Nc1ncc(Cl)c(Nc2cc3c(cc2NS(C)(=O)=O)CCO3)n1 [Example 174, N-(6-((5-chloro-2-((5-chloro-2-methoxy-4-(4-(4-methyl-1,4-diazepan-1-yl)piperidin-1-yl)phenyl)amino)pyrimidin-4-yl)amino)-2,3-dihydrobenzofuran-5-yl)methanesulfonamide] | 100 to 500 nM | 25 to 100 nM | 1 to 25 nM | 500 to 2000 nM | 1 to 25 nM | 1 to 25 nM
Cc1cc(Nc2ncc(Br)c(Nc3cc4c(cc3NS(C)(=O)=O)CCO4)n2)c(Cl)cc1N1CCC(N2CCN(C)CC2)CC1 [Example 175, N-(6-((5-bromo-2-((2-chloro-5-methyl-4-(4-(4-methylpiperazin-1-yl)piperidin-1-yl)phenyl)amino)pyrimidin-4-yl)amino)-2,3-dihydrobenzofuran-5-yl)methanesulfonamide] | 500 to 2000 nM | 25 to 100 nM | 100 to 500 nM | > 10000 nM | 25 to 100 nM | 100 to 500 nM
COc1cc(N2CCC(N3CCN(C)CC3)CC2)c(C)cc1Nc1ncc(Cl)c(Nc2cc(Cl)c(F)cc2NS(C)(=O)=O)n1 [Example 176, N-(4-chloro-2-((5-chloro-2-((2-methoxy-5-methyl-4-(4-(4-methylpiperazin-1-yl)piperidin-1-yl)phenyl)amino)pyrimidin-4-yl)amino)-5-fluorophenyl)methanesulfonamide] | 100 to 500 nM | 1 to 25 nM | 25 to 100 nM | 500 to 2000 nM | 1 to 25 nM | 25 to 100 nM
Cc1cc(Nc2ncc(Br)c(Nc3cc(Cl)c(F)cc3NS(C)(=O)=O)n2)c(Cl)cc1N1CCC(N2CCN(C)CC2)CC1 [Example 177, N-(2-((5-bromo-2-((2-chloro-5-methyl-4-(4-(4-methylpiperazin-1-yl)piperidin-1-yl)phenyl)amino)pyrimidin-4-yl)amino)-4-chloro-5-fluorophenyl)methanesulfonamide] | 2000 to 10000 nM | 1 to 25 nM | 100 to 500 nM | 2000 to 10000 nM | 25 to 100 nM | 100 to 500 nM
COc1cc(N2CCC(N3CCN(C)CC3)CC2)c(Cl)cc1Nc1ncc(Br)c(Nc2cc(Cl)c(F)cc2NS(C)(=O)=O)n1 [Example 178, N-(2-((5-bromo-2-((5-chloro-2-methoxy-4-(4-(4-methylpiperazin-1-yl)piperidin-1-yl)phenyl)amino)pyrimidin-4-yl)amino)-4-chloro-5-fluorophenyl)methanesulfonamide] | 500 to 2000 nM | 25 to 100 nM | 25 to 100 nM | 2000 to 10000 nM | 1 to 25 nM | 25 to 100 nM
Cc1cc(Nc2ncc(Cl)c(Nc3cc(Cl)ccc3N(C)S(C)(=O)=O)n2)c(Cl)cc1N1CCC(N2CCC(N(C)C)C2)CC1 (stereo not drawn) [Example 179, N-(4-chloro-2-((5-chloro-2-((2-chloro-4-(4-(3-(dimethylamino)pyrrolidin-1-yl)piperidin-1-yl)-5-methylphenyl)amino)pyrimidin-4-yl)amino)phenyl)-N-methylmethanesulfonamide] | 100 to 500 nM | 25 to 100 nM | 25 to 100 nM | 500 to 2000 nM | 100 to 500 nM | 100 to 500 nM
Cc1cc(Nc2ncc(Cl)c(Nc3cc(Cl)ccc3N(C)S(C)(=O)=O)n2)c(Cl)cc1N1CCC(N2CCCN(C)CC2)CC1 [Example 180, N-(4-chloro-2-((5-chloro-2-((2-chloro-5-methyl-4-(4-(4-methyl-1,4-diazepan-1-yl)piperidin-1-yl)phenyl)amino)pyrimidin-4-yl)amino)phenyl)-N-methylmethanesulfonamide] | 500 to 2000 nM | 25 to 100 nM | 25 to 100 nM | 2000 to 10000 nM | 25 to 100 nM | 25 to 100 nM
COc1cc(N2CCC(N3CCN(C)CC3)CC2)c(Cl)cc1Nc1ncc(Cl)c(Nc2cc(Cl)c(F)cc2NS(C)(=O)=O)n1 [Example 181, N-(4-chloro-2-((5-chloro-2-((5-chloro-2-methoxy-4-(4-(4-methylpiperazin-1-yl)piperidin-1-yl)phenyl)amino)pyrimidin-4-yl)amino)-5-fluorophenyl)methanesulfonamide] | 500 to 2000 nM | 25 to 100 nM | 25 to 100 nM | 2000 to 10000 nM | 100 to 500 nM | 25 to 100 nM
Cc1cc(Nc2ncc(Cl)c(Nc3cc(Cl)c(F)cc3NS(C)(=O)=O)n2)c(Cl)cc1N1CCC(N2CCN(C)CC2)CC1 [Example 182, N-(4-chloro-2-((5-chloro-2-((2-chloro-5-methyl-4-(4-(4-methylpiperazin-1-yl)piperidin-1-yl)phenyl)amino)pyrimidin-4-yl)amino)-5-fluorophenyl)methanesulfonamide] | 2000 to 10000 nM | 25 to 100 nM | 25 to 100 nM | > 10000 nM | 25 to 100 nM | 25 to 100 nM
COc1cc(N2CCC(N3CCN(C)CC3)CC2)c(Cl)cc1Nc1ncc(Br)c(Nc2cc3c(cc2NS(C)(=O)=O)CCO3)n1 [Example 183, N-(6-((5-bromo-2-((5-chloro-2-methoxy-4-(4-(4-methylpiperazin-1-yl)piperidin-1-yl)phenyl)amino)pyrimidin-4-yl)amino)-2,3-dihydrobenzofuran-5-yl)methanesulfonamide] | 1 to 25 nM | 1 to 25 nM | 1 to 25 nM | 25 to 100 nM | 1 to 25 nM | 1 to 25 nM
